According to patent publication US7906545B2, “Prodrugs of CC-1065 analogs” (priority 2002, dated 2011):

Assays:
[1] = cited from earlier work
mice = settings: single intravenous dose of 12.5 μg/kg; cited from earlier work
[2] = vs doxorubicin, methotrexate and vincristine; cited from earlier work
[3] = phenyl carbamate prodrug of adozelesin; cited from earlier work
[4] = stability in aqueous solutions; type: physicochemical
[5] = as compared with DC1
carboxyl esterase = assay: conversion of carbamate prodrug into parent drug by incubation in serum, plasma or with carboxyl esterase; type: in vitro ADME; settings: plasma or with an enzyme such as carboxyl esterase
Source text: Thus, piperazino carbamate and 4-piperidino-piperidino carbamate protecting groups are enzyme-cleavable by enzymes such as carboxyl esterase, which occurs in serum and plasma. Phosphate protecting groups are cleavable by phosphatase enzymes such as alkaline phosphatase.

alkaline phosphatase = settings: incubation with alkaline phosphatase
Experimental: Cells to be evaluated can be exposed to the compounds for 24 hours and the surviving fractions of cells measured in direct assays by known methods.

[6] = tested on: endogenous alkaline phosphatase; settings: presumably hydrolysis by endogenous alkaline phosphatase; cited from earlier work

SMILES: Cc1c[nH]c2c1[C@@]13C[C@@H]1CN(C(=O)c1cc4cc(NC(=O)c5cc6ccccc6o5)ccc4[nH]1)C3=CC2=O [Adozelesin]
- systemic toxicity in clinical evaluation [1]: high systemic toxicity
- therapeutic effects in clinical evaluation [1]: poor therapeutic effects

SMILES: COc1c(O)c2c(c3cc(C(=O)N4CCc5c4c(O)c(OC)c4[nH]c(C(=O)N6CC7CC78C6=CC(=O)c6[nH]cc(C)c68)cc54)[nH]c13)CCN2C(N)=O (centres unmarked) [CC-1065]
- delayed toxicity in mice (mice): delayed hepatotoxicity leading to mortality on day 50
- potency in vitro relative to commonly used anti-cancer drugs [2]: about 1000 fold

SMILES: CCN(CC)c1ccc2cc(C(=O)Nc3ccc4[nH]c(C(=O)N5C[C@@H](CCl)c6c5cc(OC(=O)Nc5ccccc5)c5[nH]cc(C)c65)cc4c3)oc2c1 [Carzelesin]
- lability of prodrug [3]: too labile for therapeutic use
- systemic toxicity in clinical evaluation [1]: high systemic toxicity
- therapeutic effects in clinical evaluation [1]: poor therapeutic effects

SMILES: CN1CCN(C(=O)Oc2cc3c(c4ccccc24)[C@H](CCl)CN3C(=O)c2cc3cc(NC(=O)c4cc5cc(NC(=O)CCS)ccc5[nH]4)ccc3[nH]2)CC1 [DC2]
- stability in aqueous solutions [4]: extremely stable
- water solubility [5]: enhanced water solubility
- conversion into the parent drug DC1 (carboxyl esterase): can be converted into the parent drug DC1

SMILES: O=C(CCS)Nc1ccc2[nH]c(C(=O)Nc3ccc4[nH]c(C(=O)N5C[C@@H](CCl)c6c5cc(OC(=O)N5CCC(N7CCCCC7)CC5)c5ccccc65)cc4c3)cc2c1 [DC3]
- stability in aqueous solutions [4]: extremely stable
- water solubility [5]: enhanced water solubility
- conversion into the parent drug DC1 (carboxyl esterase): can be converted into the parent drug DC1

SMILES: O=C(CCS)Nc1ccc2[nH]c(C(=O)Nc3ccc4[nH]c(C(=O)N5C[C@@H](CCl)c6c5cc(OP(=O)(O)O)c5ccccc65)cc4c3)cc2c1 [DC4]
- stability in aqueous solutions [4]: extremely stable
- conversion into the parent drug DC1 (alkaline phosphatase): converts it into the parent drug DC1
- water solubility [5]: soluble

SMILES: COc1cc([C@@H]2c3cc4c(cc3[C@@H](O[C@@H]3O[C@@H]5CO[C@@H](C)O[C@H]5[C@H](O)[C@H]3O)[C@H]3COC(=O)[C@H]23)OCO4)cc(OC)c1OP(=O)(O)O [etoposide phosphate]
- conversion in vivo into active drug [6]: rapidly converted into active drug
